Measurements: patent publication US12102633B2, “Spirolactone compounds” (Quixgen, Inc., priority 2017, dated 2024)

Experiments:
[1] = tested on: T1, Mouse ACC (ACC protein purified from liver); assay: Mouse ACC enzymatic activity assay; format: biochemical; details: read-out: EA-CoA mACC IC50
T1 construct: ACC protein was purified by taking advantage of the biotinylation in the carboxylase domain
Method: ACC protein was purified by taking advantage of the biotinylation in the carboxylase domain. Male C57BL/6J mice (Jackson Laboratory) at 8-12 weeks of age were euthanized by using CO2 inhalation method and liver was immediately frozen on dry ice. To 100 mg liver was added 1 mL ice-cold tissue lysis buffer (20 mM Tris-HCl pH 7.5, 150 mM NaCl, 1 mM Na2EDTA, 1 mM EGTA, 1% Triton, 2.5 mM sodium pyrophosphate, 1 mM 3-glycerophosphate, 1 mM Na3VO4, 1 μg/mL leupeptin, 1 tablet of protease inhibitor cocktail (Roche) per 10 mL lysis buffer) followed by homogenization on ice with Power Gen 125 homogenizer (Fisher Scientific). After 30 min incubation on ice, tissue lysate was passed through a 10 mL syringe with 18½ G needle for 10 times to shear DNA. The lysate was then subject to 17.5%-35% saturated ammonium sulfate precipitation by adding 880 mg ammonium sulfate powder (Sigma) to 10 mL liver lysate in 10 min with stirring on ice. Sample was centrifuged at 14,000 rpm (Eppendorf) at 4° C. for 10 min and supernatant was saved for further precipitation by adding 880 mg ammonium sulfate powder to 10 ml supernatant in 10 min with stirring on ice. Sample was centrifuged at 14,000 rpm at 4° C. for 10 min. Supernatant was discarded and pellet was dissolved in 10 mL sample buffer (100 mM Tris-HCl, pH 7.5, 1 mM EDTA, 0.1 mM DTT, 0.5 M NaCl, and 5% glycerol). The sample was then added with 1 mL of Strep Mag beads slurry (Genscript) and rotated at 4° C. for 1 hour. Supernatant was discarded and beads were washed with sample buffer for 3 times. Protein was then eluted by adding 10 mL of 2 mM biotin (Promega) prepared in sample buffer. The eluate was then dialyzed at 4° C. for 1 hour by using Slide-A-Lyzer™ Dialysis Cassettes 10K MWCO (Thermo Fisher Scientific) against 3 changes of 200 mL dialysis buffer (50 mM HEPES, pH 7.5, 0.1 mM DTT, 1.0 mM EDTA, and 10% glycerol). Total protein concentration was then quantitated by using BCA protein assay kit (Pierce).
For ACC enzymatic activity assay, 1 μL serial diluted compounds prepared in DMSO in duplicate were mixed with 8 μL dialyzed sample at 37° C. for 10 min. Ninety one L of reaction buffer (50 mM HEPES pH 7.5, 10 mM MgCl2, 2.0 mM DTT, 0.5 mM acetyl-CoA, 4.0 mM ATP, 15 mM ^13C-NaHCO3, 0.75 mg/mL BSA, 0.5 mM sodium citrate) was added to the tube and mixed thoroughly. After incubation at 37° C. for 1 hour, 300 μl ice-cold quenching buffer (acetonitrile:methanol=1:1, 20 μM carbutamide as internal standard) was added to each tube and mixed well to terminate the reaction. Samples were centrifuged at 14,000 rpm for 10 min (Eppendorf) and supernatant was loaded onto LC-MS/MS for quantitation of malonyl-^13C-CoA (Gao et al., Journal of chromatography B, Analytical technologies in the biomedical and life sciences 853, 303-313 (2007)).
(§1) Shimadzu LC system was used for sample analysis consisting of system controller (Shimadzu CBM-20A), autosampler (Shimadzu SIL-20A), pump A and B (Shimadzu LC-20AD), column oven (Shimadzu CTO-20A), and analytical column (Phenomenex Gemini 5u C18 11A, 100×2 mm). LC was running at 200 μL/min in the binary gradient mode with mobile phase A (5 mM Ammonium Acetate and 5 mM DMBA in water (1,3-Dimethylbutylamine)) and B (methanol). The samples were analyzed on an AB Sciex QTrap4000 LC-MS/MS triple quadrupole mass spectrometer (Applied Biosystems). Malonyl-CoA and malonyl-13C-CoA were monitored in positive ion mode following MRM transitions at 854.2/347.1 and 855.1/246.1, respectively. The product and internal standard were coeluted to the mass spectrometer in 3 s with 50% H2O, 25% MeCN, 25% acetone, and 5 mM ammonium acetate. Ion chromatograms were integrated using the Analyst 1.5.2 software. Peak area ratios were compared against a standard curve and final cellular concentration of malonyl-CoA or production rate of malonyl-13C-CoA was calculated as pmoles/mg protein per minute.

Human sebocytes = assay: Cellular levels of malonyl-CoA in human sebocytes; format: cell-based; details: 0.5 h, 30 min incubation, read-out: Malonyl-CoA in Sebo IC50
Method: as §1
Human sebocytes (Celprogen) were grown in growth media (DMEM with 4.5 g/L glucose, 0.584 g/L L-glutamine (Sigma), 100 units/mL of penicillin and 100 μg/mL of streptomycin (Gibco), 10% fetal bovine serum (Gibco)) at 37° C. in a humidified water jacketed incubator (Forma Scientific) supplemented with 5% CO2 till 100% confluency. Cells grown in 152 cm^2 cell culture dish (Corning) were trypsinized with 0.25% trypsin-EDTA (Gibco), centrifuged at 800 rpm for 10 min (Eppendorf) and resuspended in 4 mL growth media. To 1 μL serial diluted compounds in DMSO, 99 μL cells (around 0.5 million cells suspended in growth media) were added and mixed well followed by incubation in cell culture incubator for 30 min. Cells were then centrifuged at 800 rpm for 10 min and 70 μL 10% trichloroacetic acid was added to each well to lyse the cells and precipitate proteins. Cellular levels of malonyl-CoA were quantitated by LC-MS/MS.

human ACC2 = biological target: T2, human ACC2 (Homo sapiens, UniProt O00763); assay: Human ACC enzymatic activity assay (ACC2); format: biochemical; details: purified human ACC2; read-out: EA-CoA hACC 2 IC50
T2 construct: purchased BPS Bioscience
Method: (§2) Human ACC enzymatic activity assays were performed by using purified human ACC1 and ACC2 proteins (BPS Bioscience). ACC1 and ACC2 proteins were diluted in 24.5 μL reaction buffer (50 mM HEPES pH 7.5, 10 mM MgCl2, 2.0 mM DTT, 4.0 mM ATP, 15 mM ^13C-NaHCO3, 0.75 mg/mL BSA, 0.5 mM sodium citrate), and final concentrations of ACC1 and ACC2 were 0.4 μg/mL and 0.48 μg/mL. For each reaction, 0.5 μL of serial diluted compounds were prepared in DMSO in duplicate or triplicate and mixed with the above 24.5 μL reaction mixtures with ACC proteins at 37° C. for 10 min. Meanwhile, 25 μL of reaction buffer plus acetyl-CoA (final concentration: 5 μM) was prepared freshly and added to the above 25 μL mixture to initiate the reaction. After incubation at 37° C. for 1-2 hours, 100 μl ice-cold 10% TCA with malonyl-^13C3-CoA (final concentration: 40 nM, Sigma-Aldrich) was added to terminate the reaction. For LC-MS/MS analysis, 300 μL quenching buffer (acetonitrile:methanol=1:1, 20 μM carbutamide as internal standard) was added to each tube and mixed well. Samples were then centrifuged at 14,000 rpm for 10 min (Eppendorf) and supernatants were loaded onto LC-MS/MS for quantitation of […] (Gao et al., Journal of chromatography B, Analytical technologies in the biomedical and life sciences 853, 303-313 (2007)).
as §1

human ACC1 = biological target: T3, human ACC1 (Homo sapiens, UniProt Q13085); assay: Human ACC enzymatic activity assay (ACC1); format: biochemical; details: purified human ACC1; read-out: EA-CoA hACC 1 IC50
T3 construct: purchased BPS Bioscience
Method: as §2, §1

T2 sequence (O00763 whole entry): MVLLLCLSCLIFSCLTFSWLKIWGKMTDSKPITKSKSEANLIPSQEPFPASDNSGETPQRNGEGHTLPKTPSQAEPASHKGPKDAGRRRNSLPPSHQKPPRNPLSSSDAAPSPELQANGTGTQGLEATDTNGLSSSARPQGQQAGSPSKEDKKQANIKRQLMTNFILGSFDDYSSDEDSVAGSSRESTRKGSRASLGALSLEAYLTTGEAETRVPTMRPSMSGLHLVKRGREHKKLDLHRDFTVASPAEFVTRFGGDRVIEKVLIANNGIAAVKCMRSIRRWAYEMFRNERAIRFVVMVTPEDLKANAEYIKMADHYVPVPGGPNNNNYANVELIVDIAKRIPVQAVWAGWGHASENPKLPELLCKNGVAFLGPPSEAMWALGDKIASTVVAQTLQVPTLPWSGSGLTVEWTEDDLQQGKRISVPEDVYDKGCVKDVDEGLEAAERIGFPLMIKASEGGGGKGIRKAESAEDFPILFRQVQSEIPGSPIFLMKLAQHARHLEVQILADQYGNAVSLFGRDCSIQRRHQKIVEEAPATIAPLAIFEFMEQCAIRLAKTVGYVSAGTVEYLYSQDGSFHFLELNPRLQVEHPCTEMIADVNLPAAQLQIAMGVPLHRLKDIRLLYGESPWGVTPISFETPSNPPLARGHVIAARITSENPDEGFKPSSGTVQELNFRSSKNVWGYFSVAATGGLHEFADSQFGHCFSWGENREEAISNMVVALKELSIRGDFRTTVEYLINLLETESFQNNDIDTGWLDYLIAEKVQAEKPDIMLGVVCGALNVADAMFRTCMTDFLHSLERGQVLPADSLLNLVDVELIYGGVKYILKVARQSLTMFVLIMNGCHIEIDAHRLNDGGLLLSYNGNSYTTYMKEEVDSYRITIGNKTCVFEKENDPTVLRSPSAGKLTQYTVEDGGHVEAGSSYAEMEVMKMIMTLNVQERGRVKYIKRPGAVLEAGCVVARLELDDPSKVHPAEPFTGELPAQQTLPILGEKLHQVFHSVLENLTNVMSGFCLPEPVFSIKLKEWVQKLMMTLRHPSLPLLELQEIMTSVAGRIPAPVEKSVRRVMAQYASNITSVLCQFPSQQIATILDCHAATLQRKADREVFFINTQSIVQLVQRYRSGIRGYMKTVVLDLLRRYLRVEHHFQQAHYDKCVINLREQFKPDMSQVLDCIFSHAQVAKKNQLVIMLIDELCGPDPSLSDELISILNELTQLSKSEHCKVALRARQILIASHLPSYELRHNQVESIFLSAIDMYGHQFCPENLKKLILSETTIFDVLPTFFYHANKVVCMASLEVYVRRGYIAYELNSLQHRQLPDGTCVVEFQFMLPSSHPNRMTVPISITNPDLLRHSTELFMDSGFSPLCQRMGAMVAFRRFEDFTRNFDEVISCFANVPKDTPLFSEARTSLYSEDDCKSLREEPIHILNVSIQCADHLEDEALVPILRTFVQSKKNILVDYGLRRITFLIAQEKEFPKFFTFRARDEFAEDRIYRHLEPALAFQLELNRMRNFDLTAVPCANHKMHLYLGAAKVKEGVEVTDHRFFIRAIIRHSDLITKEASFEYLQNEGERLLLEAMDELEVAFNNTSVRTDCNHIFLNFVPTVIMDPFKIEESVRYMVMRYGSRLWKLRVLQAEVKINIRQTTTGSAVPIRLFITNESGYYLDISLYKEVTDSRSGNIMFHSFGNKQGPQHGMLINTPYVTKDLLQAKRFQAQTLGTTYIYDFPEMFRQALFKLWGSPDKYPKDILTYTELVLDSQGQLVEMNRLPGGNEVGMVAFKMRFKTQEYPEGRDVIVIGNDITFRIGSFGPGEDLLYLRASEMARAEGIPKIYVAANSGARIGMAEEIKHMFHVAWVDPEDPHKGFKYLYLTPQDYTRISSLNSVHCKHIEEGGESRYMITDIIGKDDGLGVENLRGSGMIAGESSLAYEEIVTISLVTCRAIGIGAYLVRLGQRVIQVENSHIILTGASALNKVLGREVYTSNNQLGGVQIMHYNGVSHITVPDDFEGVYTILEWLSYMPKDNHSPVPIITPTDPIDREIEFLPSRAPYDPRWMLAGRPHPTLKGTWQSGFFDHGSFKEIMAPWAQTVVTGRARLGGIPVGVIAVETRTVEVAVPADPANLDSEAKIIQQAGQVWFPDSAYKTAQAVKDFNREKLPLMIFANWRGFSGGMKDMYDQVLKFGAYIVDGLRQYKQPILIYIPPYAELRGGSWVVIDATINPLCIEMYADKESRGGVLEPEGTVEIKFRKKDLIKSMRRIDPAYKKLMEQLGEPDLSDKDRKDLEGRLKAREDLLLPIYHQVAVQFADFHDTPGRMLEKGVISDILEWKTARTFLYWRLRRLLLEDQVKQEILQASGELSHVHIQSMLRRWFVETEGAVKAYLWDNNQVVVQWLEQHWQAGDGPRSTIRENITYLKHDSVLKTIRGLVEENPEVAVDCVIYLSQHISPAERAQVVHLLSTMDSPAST

Row | Compound | IC50 (Human sebocytes) | other results
1 | COc1cc(C(=O)N2CCC3(CC2)Cc2ccc(Nc4ccnn4C)cc2C(=O)O3)cc2c(OC)cccc12 [Example 5, 1′-(4,8-dimethoxy-2-naphthoyl)-7-((1-methyl-1H-pyrazol-5-yl)amino)spiro[isochroman-3,4′-piperidin]-1-one] |  | IC50 [1]: 0.37 nM
2 | CC(C)c1ccc2c(c1)C(=O)OC1(CCN(C(=O)c3cc4ncccc4[nH]3)CC1)C2 [Example 9, 7-isopropyl-1′-(1H-pyrrolo[3,2-b]pyridine-2-carbonyl)-spiro[isochroman-3,4′-piperidin]-1-one] | 714 nM | 
3 | COc1ccc2ncc(C(=O)N3CCC4(CC3)Cc3ccc(C(C)C)cc3C(=O)O4)cc2c1 [Example 11, 7-isopropyl-1′-(6-methoxyquinoline-3-carbonyl)spiro [isochroman-3,4′-piperidin]-1-one] | 142 nM | 
4 | CCc1nc2ccc(C(=O)N3CCC4(CC3)Cc3ccc(C(C)C)cc3C(=O)O4)cc2[nH]1 [Example 12, 1′-(2-ethyl-1H-benzo[d]imidazole-6-carbonyl)-7-isopropylspiro[isochroman-3,4′-piperidin]-1-one] | 3490 nM | 
5 | CC(C)c1ccc2c(c1)C(=O)OC1(CCN(C(=O)c3ccc4[nH]c(=O)n(C)c4c3)CC1)C2 [Example 13, 7-isopropyl-1′-(3-methyl-2-oxo-2,3-dihydro-1H-benzo [d]imidazole-5-carbonyl)spiro[isochroman-3,4′-piperidin]-1-one] | 2440 nM | 
6 | COC(=O)c1cncc(-c2ccc3c(c2)C(=O)OC2(CCN(C(=O)c4cc(OC)c5cccc(C6CC6)c5n4)CC2)C3)c1 [Example 19, methyl 5-(1′-(8-cyclopropyl-4-methoxyquinoline-2-carbonyl)-1-oxospiro[isochroman-3,4′-piperidin]-7-yl)nicotinate] |  | IC50 (human ACC2): 740 nM; IC50 (human ACC1): 1120 nM
7 | COC(=O)c1cncc(-c2ccc3c(c2)C(=O)OC2(CCN(C(=O)c4cc(OC)c5c(C)cn(C6CC6)c5c4)CC2)C3)c1 [Example 21, methyl 5-(1′-(1-cyclopropyl-4-methoxy-3-methyl-1H-indole-6-carbonyl)-1-oxospiro[isochroman-3,4′-piperidin]-7-yl)nicotinate] |  | IC50 (human ACC2): 221 nM; IC50 (human ACC1): 296 nM
8 | COc1cc(C(=O)N2CCC3(CC2)Cc2ccc(-c4cncc(C(=O)O)c4)cc2C(=O)O3)cc2c1c(C)cn2C1CC1 [Example 22, 5-(1′-(1-cyclopropyl-4-methoxy-3-methyl-1H-indole-6-carbonyl)-1-oxospiro[isochroman-3,4′-piperidin]-7-yl)nicotinic acid] |  | IC50 (human ACC2): 11.1 nM; IC50 (human ACC1): 23.9 nM

Second part, led by results:

Row | IC50 (Human sebocytes) | Compound | other results
9 | 6150 nM | Cc1nc2ccc(C(=O)N3CCC4(CC3)Cc3ccc(C(C)C)cc3C(=O)O4)cc2[nH]1 [Example 7, 7-isopropyl-1′-(2-methyl-1H-benzo[d]imidazole-6-carbonyl)spiro[isochroman-3,4′-piperidin]-1-one] | 
10 | 442 nM | CC(C)c1ccc2c(c1)C(=O)OC1(CCN(C(=O)c3ccc4[nH]ncc4c3)CC1)C2 [Example 8, 1′-(1H-indazole-5-carbonyl)-7-isopropylspiro[isochroman-3,4′-piperidin]-1-one] | 
11 | 676 nM | CC(C)c1ccc2c(c1)C(=O)OC1(CCN(C(=O)c3ccc4cn[nH]c4c3)CC1)C2 [Example 10, 1′-(1H-indazole-6-carbonyl)-7-isopropylspiro-[isochroman-3,4′-piperidin]-1-one] | 
